Reference: patent publication US5420261A, “Glycosides of 3'-deoxyaquayamycin antibiotics” (Schering Corporation, priority 1992, dated 1995)
Values after ≈ are worked out from the molar mass of the structure shown. Read-outs that look alike come from different tables or passages of the source.

Key:
[1] = test system: Mycelial; experiment: In vitro activity in Eagles Medium Essential Medium (EMEM), Mycelial; format: cell-based; details: read-out: GEOMETRIC MEAN MIC
[2] = test system: Candida (8 species); experiment: In vitro antifungal activity in Sabouraud dextrose broth, Candida (8 species); format: cell-based; details: read-out: GEOMETRIC MEAN MIC
[3] = Solubility; format: physicochemical
[4] = test system: E. coli; experiment: Bioautography after thin layer chromatography, E. coli; format: cell-based; details: TLC in 2:2:1 chloroform: methanol: pH 3.5 acetate buffer
From the text: (§1) The medium employed for the fermentation contained beef extract, tryptone, yeast extract, cerelose and soluble starch as the major sources of nitrogen and carbon, respectively.

[5] = test system: S. aureus; experiment: Bioautography after thin layer chromatography, S. aureus; format: cell-based; details: TLC in 2:2:1 chloroform: methanol: pH 3.5 acetate buffer
From the text: as §1

[6] = test system: C. abicans; experiment: Bioautography after thin layer chromatography, C. abicans; format: cell-based; details: TLC in 2:2:1 chloroform: methanol: pH 3.5 acetate buffer
From the text: as §1

[7] = test system: Dermatophytes (seven species); experiment: In vitro antifungal activity in Sabouraud dextrose broth, dermatophytes (seven species); format: cell-based; details: read-out: GEOMETRIC MEAN MIC
[8] = Sabouraud Dextrose Broth Medium, Candida (8 species)
[9] = Sabouraud Dextrose Broth Medium, Dermatophytes (seven species)

| Structure (SMILES) | MIC [1] [mg/L] | MIC [2, 8] [mg/L] | solubility in dichlormethane, chloroform and dimethyl sulfoxide [3] | solubility in hexane and water [3] | solubility in methanol, diethyl ether and ethyl acetate [3] | biological activity by bioautography [4] | biological activity by bioautography [5] | biological activity by bioautography [6] | MIC [7, 9] [mg/L] | MIC ([2]; Candida) [mg/L] | MIC [7] [mg/L] |
| --- | --- | --- | --- | --- | --- | --- | --- | --- | --- | --- | --- |
| CC1OC(OC2CCC(c3ccc4c(c3O)C(=O)C3=C(C4=O)C4(O)C(=O)CC(C)(OC5C=CC(=O)C(C)O5)CC4(O)C=C3)OC2C)C=CC1=O (stereo not drawn) [Compound 1a] | 78 (≈ 113 µM) | ≥ 43 | soluble in dichlormethane, chloroform and dimethyl sulfoxide | insoluble in hexane and water | less soluble in methanol, diethyl ether and ethyl acetate | biologically active | biologically active | biologically active | ≥ 5 | – | – |
| CC1OC(OC2(C)CC(=O)C3(O)C4=C(C=CC3(O)C2)C(=O)c2c(ccc(C3CCC(OC5CCC(O)C(C)O5)C(C)O3)c2O)C4=O)C=CC1=O (stereo not drawn) [Compound 1b] | 95 (≈ 137 µM) | ≥ 128 | soluble in dichlormethane, chloroform and dimethyl sulfoxide | insoluble in hexane and water | less soluble in methanol, diethyl ether and ethyl acetate | biologically active | biologically active | biologically active | ≥ 132 | – | – |
| COc1cccc2c1C(=O)c1c(O)c3c(c(O)c1C2=O)C[C@@](O)(C(=O)CO)C[C@@H]3O[C@H]1C[C@H](N)[C@H](O)[C@H](C)O1 [Adriamycin, reference compound] | 128 (≈ 235 µM) | – | – | – | – | – | – | – | – | ≥ 128 | ≥ 128 |
